US11851440B2, “Modulators of eukaryotic initiation factor 2B, compositions and methods” (Denali Therapeutics Inc., priority 2017, dated 2023)

What follows are molecules tested on ISR pathway (ATF4 translation) (assay: ATF4 Nano Luciferase reporter integrated stress response (ISR) assay in H4 ATF4-NLuc cells). Settings: Homo sapiens, H4 ATF4-NLuc (clone 17) cells; compound 30 minutes, then 50 um sodium arsenite for 6 hours; luminescence readout.

IC50 [nM]	Compound
7.5	O=C(CO[C@H]1C[C@@H](OC(F)(F)F)C1)NC12CC(n3cnc(-c4c(F)cc(Cl)cc4F)c3)(C1)C2 [Example 269]

Same assay, conditions: Homo sapiens, read-out: Activity (IC50)

Compound	IC50 [nM]
CC(C)(C)[Si](C)(C)O[C@H]1C[C@@H](c2nnc(C34CC(NC(=O)COc5ccc(Cl)cc5)(C3)C4)o2)C1 [Example 260]	< 1000

Same assay, conditions: Homo sapiens, read-out: Activity (IC50), H4 ATF4-NLuc (clone 17) cells; compound 30 minutes, then 50 um sodium arsenite for 6 hours; luminescence readout

IC50 [nM]	Compound
< 1000	O=C(NC12CC(c3nnc([C@H]4C[C@@H](OC(F)(F)F)C4)o3)(C1)C2)c1nc2cc(Br)ccc2o1 [Example 193]
< 1000	O=C(NC12CC(c3nnc([C@H]4C[C@@H](OC(F)(F)F)C4)o3)(C1)C2)c1cn2cc(F)c(Cl)cc2n1 [Example 194]
< 1000	O=C(NC12CC(c3nnc([C@H]4C[C@@H](OC(F)(F)F)C4)o3)(C1)C2)c1ncc2cc(Cl)ccc2n1 [Example 195]
< 1000	O=C(NC12CC(c3nnc([C@H]4C[C@@H](OC(F)(F)F)C4)o3)(C1)C2)c1ccc2cc(Cl)c(F)cc2n1 [Example 196]
< 1000	O=C(COc1ccc(Cl)c(F)c1)NC12CC(NCCO[C@H]3C[C@@H](n4nccn4)C3)(C1)C2 [Example 197]
< 1000	O=C(CO[C@H]1C[C@@H](OC(F)(F)F)C1)NC12CC(n3cc(-c4ccc(Cl)cc4)oc3=O)(C1)C2 [Example 198]
< 1000	O=C(CO[C@H]1C[C@@H](OC(F)(F)F)C1)NC12CC(c3nnc(-c4ccc(C(F)(F)F)cn4)o3)(C1)C2 [Example 199]
< 1000	O=C(COc1ccc(Cl)c(F)c1)NC12CC(n3cnnn3)(C1)C2 [Example 200]
< 1000	O=C(CO[C@H]1C[C@@H](OC(F)(F)F)C1)NC12CC(c3nc(-c4ccc(Cl)c(F)c4)no3)(C1)C2 [Example 201]
< 1000	O=C(CO[C@H]1C[C@@H](OC(F)(F)F)C1)NC12CC(c3noc(-c4ccc(Cl)cc4)n3)(C1)C2 [Example 203]
< 1000	O=C(CO[C@H]1C[C@@H](OC(F)(F)F)C1)NC12CC(c3nnc(-c4ccc(C(F)(F)F)nc4)o3)(C1)C2 [Example 204]
< 1000	O=C(CO[C@H]1C[C@@H](OC(F)(F)F)C1)NC12CC(c3nc(-c4ccc(Cl)cc4)no3)(C1)C2 [Example 205]
< 1000	O=C(COc1ccc(Cl)cc1)NC12CC(N3CC(CC(F)(F)F)CC3=O)(C1)C2 (centres unmarked) [Example 210]
< 1000	CN1C(=O)N(C23CC(NC(=O)COc4ccc(Cl)cc4)(C2)C3)CC1c1ccc(Cl)cc1 (centres unmarked) [Example 212]
1000 to 10000	O=C(COc1ccc(Cl)cc1)NC12CC(N3CC(C4CCC4)CC3=O)(C1)C2 (centres unmarked) [Example 213]
< 1000	O=C(COc1ccc(Cl)cc1)NC12CC(N3CC(C4CCC4)=CC3=O)(C1)C2 [Example 214]
1000 to 10000	O=C(COc1ccc(Cl)c(F)c1)NC12CC(N3CCN(CC4CCC4)C3=O)(C1)C2 [Example 215]
< 1000	O=C(COc1ccc(Cl)c(F)c1)NC12CC(N3CC(C4CCC4)OC3=O)(C1)C2 (centres unmarked) [Example 216]
< 1000	O=C(COc1ccc(Cl)c(F)c1)NC12CC(C3CN(CC4CCC4)C(=O)O3)(C1)C2 (centres unmarked) [Example 220]
< 1000	O=C(COc1ccc(Cl)c(F)c1)NC12CC(N3CC(COC(F)(F)F)CC3=O)(C1)C2 (centres unmarked) [Example 221]
< 1000	O=C(COc1ccc(Cl)c(F)c1)NC12CC(N3CCC(COC(F)(F)F)C3=O)(C1)C2 (centres unmarked) [Example 222]
1000 to 10000	O=C(COc1ccc(Cl)c(F)c1)NC12CC(N3CC(COC(F)(F)F)OC3=O)(C1)C2 (centres unmarked) [Example 223]

IC50 [nM]	Compound
< 1000	O=C(COc1ccc(Cl)c(F)c1)NC12CC(N3CC(C4CN(CC(F)(F)F)C4)OC3=O)(C1)C2 (centres unmarked) [Example 224]
< 1000	O=C(NC12CC(c3nnc([C@H]4C[C@@H](OC(F)(F)F)C4)o3)(C1)C2)c1ccn(CCOC(F)(F)F)n1 [Example 225]
< 1000	O=C(CO[C@H]1C[C@@H](OC(F)(F)F)C1)NC12CC(c3ncc(-c4ccc(Cl)c(F)c4)o3)(C1)C2 [Example 227]
< 1000	O=C(CO[C@H]1C[C@@H](OC(F)(F)F)C1)NC12CC(c3cn(-c4ccc(Cl)c(F)c4)cn3)(C1)C2 [Example 228]
< 1000	O=C(NC12CC(n3cnc(-c4ccc(F)c(F)c4)c3)(C1)C2)[C@H]1C[C@@H](OCCOC(F)(F)F)C1 [Example 229]
< 1000	O=C(CO[C@H]1C[C@@H](n2nccn2)C1)NC12CC(n3cnc(-c4ccc(Cl)c(F)c4)c3)(C1)C2 [Example 230]
< 1000	O=C(CO[C@H]1C[C@@H](OC(F)(F)F)C1)NC12CC(n3cnc(-c4cnc(C(F)(F)F)nc4)c3)(C1)C2 [Example 231]
< 1000	O=C(NC12CC(c3nnc(C4CC(OC(F)(F)F)C4)o3)(C1)C2)C(CO)Oc1ccc(Cl)cc1 (centres unmarked) [Example 232]
< 1000	O=C(CO[C@H]1C[C@@H](OC(F)(F)F)C1)NC12CC(c3nc4ccc(Cl)cc4o3)(C1)C2 [Example 233]
1000 to 10000	O=C(CO[C@H]1C[C@@H](OC(F)(F)F)C1)NC12CC(c3nc4cc(Cl)ccc4o3)(C1)C2 [Example 234]
< 1000	O=C(NC12CC(c3nnc(-c4ccc(Cl)c(F)c4)o3)(C1)C2)[C@H]1CC[C@H](COC(F)(F)F)CC1 [Example 235]
< 1000	O=C(COc1ccc(Cl)c(F)c1)NC12CC(NC(=O)OC[C@H]3C[C@H](OC(F)(F)F)C3)(C1)C2 [Example 238]
< 1000	O=C(CO[C@H]1C[C@@H](OC(F)(F)F)C1)NC12CC(c3ncn(-c4ccc(Cl)c(F)c4)n3)(C1)C2 [Example 239]
< 1000	CCO[C@H]1C[C@@H](OCC(=O)NC23CC(n4cnc(-c5ccc(Cl)c(F)c5)c4)(C2)C3)C1 [Example 240]
< 1000	O=C(CO[C@H]1C[C@@H](OC(F)(F)F)C1)NC12CC(c3nnc(-c4ccc(Cl)cn4)s3)(C1)C2 [Example 241]
< 1000	O=C(COc1ccc(Cl)cc1)NC12CC(c3nnn([C@H]4C[C@@H](OC(F)(F)F)C4)n3)(C1)C2 [Example 242]
< 1000	O=C(CO[C@H]1C[C@@H](OC(F)(F)F)C1)NC12CC(c3nnn(-c4ccc(Cl)cc4)n3)(C1)C2 [Example 243]
< 1000	O=C(COc1ccc(Cl)c(F)c1)NC12CC(c3nnc([C@H]4C[C@@H](n5nccn5)C4)o3)(C1)C2 [Example 244]
< 1000	O=C(COc1ccc(Cl)c(F)c1)NC12CC(c3nnc([C@H]4C[C@@H](n5ccnn5)C4)o3)(C1)C2 [Example 245]
< 1000	O=C(CO[C@H]1C[C@@H](OC(F)(F)F)C1)NC12CC(NCCOc3ccc(Cl)c(F)c3)(C1)C2 [Example 246]
< 1000	O=C(CO[C@H]1C[C@@H](OC(F)(F)F)C1)NC12CC(c3cnc(-c4ccc(Cl)c(F)c4)o3)(C1)C2 [Example 247]
< 1000	O=C(NC12CC(n3cnc(-c4ccc(F)c(F)c4)c3)(C1)C2)[C@H]1C[C@H](OCCOC(F)(F)F)C1 [Example 249]

IC50 [nM]	Compound
< 1000	O=C(CO[C@H]1C[C@@H](OC(F)(F)F)C1)NC12CC(c3cc(-c4ccc(Cl)cc4)no3)(C1)C2 [Example 251]
< 1000	O=C(CO[C@H]1C[C@@H](OC(F)(F)F)C1)NC12CC(c3cc(-c4ccc(Cl)cc4F)no3)(C1)C2 [Example 252]
< 1000	O=C(NC12CC(c3nnc([C@H]4C[C@@H](OC(F)(F)F)C4)o3)(C1)C2)C(O)Cc1ccc(Cl)cc1 (some centres unmarked) [Example 253]
< 1000	N#Cc1cc(C(F)(F)F)ccc1-c1cn(C23CC(NC(=O)CO[C@H]4C[C@@H](OC(F)(F)F)C4)(C2)C3)cn1 [Example 255]
< 1000	O=C(COc1ccc(Cl)c(CO)c1)NC12CC(c3nnc([C@H]4C[C@@H](OC(F)(F)F)C4)o3)(C1)C2 [Example 256]
< 1000	O=C(CC(O)c1ccc(Cl)cc1)NC12CC(c3nnc([C@H]4C[C@@H](OC(F)(F)F)C4)o3)(C1)C2 (some centres unmarked) [Example 257]
< 1000	O=C(CO[C@H]1C[C@@H](OC(F)(F)F)C1)NC12CC(c3cc(-c4ccc5c(c4)OC(F)(F)O5)no3)(C1)C2 [Example 258]
1000 to 10000	O=C(COc1ccc(Cl)cc1)NC12CC(c3nnc([C@H]4C[C@@H](O)C4)o3)(C1)C2 [Example 261]
< 1000	CC(COC(F)(F)F)OCC(=O)NC12CC(n3cnc(-c4ccc(Cl)c(F)c4)c3)(C1)C2 (centres unmarked) [Example 262]
< 1000	O=C(CO[C@H]1C[C@@H](OC(F)(F)F)C1)NC12CC(c3cnn(-c4ccc(Cl)cc4)c3)(C1)C2 [Example 263]
< 1000	O=C(CO[C@H]1C[C@@H](OC(F)(F)F)C1)NC12CC(N3CCN(c4ccc(Cl)cc4)C3=O)(C1)C2 [Example 264]
< 1000	O=C(COc1ccc(Cl)cc1)NC12CC(N3C[C@H](C4CC(OC(F)(F)F)C4)OS3(=O)=O)(C1)C2 (some centres unmarked) [Example 266]
< 1000	O=C(CO[C@H]1C[C@@H](OC(F)(F)F)C1)NC12CC(n3cnc(C4=NCC(C(F)(F)F)O4)c3)(C1)C2 (some centres unmarked) [Example 267]
< 1000	O=C(NC12CC(c3nnc([C@H]4C[C@@H](OC(F)(F)F)C4)o3)(C1)C2)N1CCc2cc(Cl)ccc2C1 [Example 268]
< 1000	O=C(CO[C@H]1C[C@@H](OC(F)(F)F)C1)NC12CC(n3cnc(-c4c(F)cc(Cl)cc4F)c3)(C1)C2 [Example 269]
< 1000	O=C(CO[C@H]1C[C@@H](OC(F)(F)F)C1)NC12CC(n3cnc(-c4cc(F)c(Cl)cc4F)c3)(C1)C2 [Example 271]
< 1000	O=C(CO[C@H]1C[C@@H](OC(F)(F)F)C1)NC12CC(n3cnc(-c4ccc(C(F)(F)F)cc4CO)c3)(C1)C2 [Example 272]
< 1000	COC(=O)c1cc(C(F)(F)F)ccc1-c1cn(C23CC(NC(=O)CO[C@H]4C[C@@H](OC(F)(F)F)C4)(C2)C3)cn1 [Example 273]
< 1000	CC(COCC(=O)NC12CC(n3cnc(-c4ccc(Cl)c(F)c4)c3)(C1)C2)OC(F)(F)F (centres unmarked) [Example 274]
< 1000	O=C(CO[C@H]1C[C@@H](OC(F)(F)F)C1)NC12CC(c3cnn(-c4ccccc4)c3)(C1)C2 [Example 275]

Same assay, conditions: read-out: Activity (IC50); H4 ATF4-NLuc (clone 17) cells; compound 30 minutes, then 50 um sodium arsenite for 6 hours; luminescence readout

IC50 [nM]	Compound
> 10000	O=C(COc1ccc(Cl)c(F)c1)NC12CC(C3CN(C4CCC4)C(=O)O3)(C1)C2 (centres unmarked) [Example 219]
< 1000	O=C(COC[C@H]1C[C@@H](OC(F)(F)F)C1)NC12CC(c3nnc([C@H]4C[C@@H](OC(F)(F)F)C4)o3)(C1)C2 [Example 226]
